ChEMBL document CHEMBL4130605, “7α,20-Epoxy-ent-kaurane Diterpenoids from the Aerial Parts of Isodon pharicus” (J Nat Prod, 2018)

How the values were obtained:
Assay type in all cases: functional, cell-based
SMMC-7721 = experiment: Cytotoxicity against human SMMC7721 cells after 48 hrs by MTS assay; conditions: SMMC-7721, 48 h
HL-60 = experiment: Cytotoxicity against human HL60 cells after 48 hrs by MTS assay; conditions: HL-60, 48 h
A549 = experiment: Cytotoxicity against human A549 cells after 48 hrs by MTS assay; conditions: A549, 48 h
SW480 = experiment: Cytotoxicity against human SW480 cells after 48 hrs by MTS assay; conditions: SW480, 48 h
MCF7 = experiment: Cytotoxicity against human MCF7 cells after 48 hrs by MTS assay; conditions: MCF7, 48 h

Row | Structure (SMILES) | IC50 (SMMC-7721) | IC50 (HL-60) | IC50 (A549) | IC50 (SW480) | IC50 (MCF7)
1 | C=C1C(=O)[C@]23[C@H](O)[C@H]1CC[C@H]2[C@@]12CO[C@@]3(O)[C@@H](O)[C@@H]1[C@](C)(CO)CC[C@@H]2O | > 10 µM | > 10 µM | > 10 µM | > 10 µM | > 10 µM
2 | COC[C@@H]1C(=O)[C@]23[C@H](O)[C@H]1[C@@H](O)C[C@H]2[C@]12CCC[C@@](C)(CO)[C@H]1[C@H](O)[C@]3(O)OC2 | > 10 µM | > 10 µM | > 10 µM | > 10 µM | > 10 µM
3 | C=C1C(=O)[C@]23C[C@H]1CC[C@H]2[C@@]12CO[C@@]3(O)[C@@H](O)[C@@H]1[C@](C)(COC(C)=O)CC[C@@H]2OC(C)=O | 2.03 µM | 2.43 µM | 3.61 µM | 1.01 µM | 2.96 µM
4 | C=C1C(=O)[C@]23C[C@H]1CC[C@H]2[C@]12CC[C@@H](O)[C@@](C)(COC(C)=O)[C@H]1[C@H](O)[C@]3(O)OC2 | 14.2 µM | 12.5 µM | 16 µM | 3.74 µM | 14.7 µM
5 | C=C1[C@@H]2C[C@H](O)[C@H]3[C@@]45CO[C@@](O)([C@@H](O)[C@@H]4C(C)(C)CC[C@@H]5OC(C)=O)[C@]3(C2)[C@@H]1O | > 10 µM | > 10 µM | > 10 µM | > 10 µM | > 10 µM
6 | C=C1C(=O)[C@]23[C@H](O)[C@H]1CC[C@H]2[C@]12CC[C@@H](O)[C@@](C)(COC(C)=O)[C@H]1[C@H](O)[C@]3(O)OC2 | > 10 µM | > 10 µM | > 10 µM | > 10 µM | > 10 µM
7 | C=C1[C@@H](O)[C@]23[C@H](O)[C@H]1CC[C@H]2[C@@]12CO[C@@]3(O)[C@@H](O)[C@@H]1[C@](C)(COC(C)=O)CC[C@@H]2O | > 10 µM | > 10 µM | > 10 µM | > 10 µM | > 10 µM
8 | C=C1C(=O)[C@]23[C@H](O)[C@H]1CC[C@H]2[C@]12CC[C@@H](O)[C@@](C)(CO)[C@H]1[C@H](O)[C@]3(O)OC2 | > 10 µM | > 10 µM | > 10 µM | > 10 µM | > 10 µM
9 | C=C1[C@H]2C[C@@]3([C@@H]1O)[C@@H](C[C@@H]2O)[C@]12CCC[C@@](C)(COC(C)=O)[C@H]1[C@H](O)[C@]3(O)OC2 | > 10 µM | > 10 µM | > 10 µM | > 10 µM | > 10 µM
10 | COC[C@H]1C(=O)[C@]23C[C@@H]1CC[C@H]2[C@@]12CO[C@]3(O)[C@@H](O)[C@@H]1C(C)(C)CC[C@@H]2O | 14.6 µM | 17.2 µM | 14.3 µM | 7.83 µM | 13.8 µM
11 | C=C1C(=O)[C@]23[C@H](O)[C@H]1CC[C@H]2[C@]12CC[C@@H](OC(C)=O)[C@@](C)(CO)[C@H]1[C@H](O)[C@]3(O)OC2 | > 10 µM | > 10 µM | > 10 µM | > 10 µM | > 10 µM
12 | C=C1C(=O)[C@]23C[C@H]1C[C@@H](OC(C)=O)[C@H]2[C@@]12CO[C@@]3(O)[C@@H](O)[C@@H]1C(C)(C)CC[C@@H]2O | 12.7 µM | 5.36 µM | 12.1 µM | 2.34 µM | 14.1 µM
13 | C=C1C(=O)[C@]23[C@H](O)[C@H]1[C@@H](O)C[C@H]2[C@]12CCC[C@@](C)(CO)[C@H]1[C@H](O)[C@]3(O)OC2 | > 10 µM | > 10 µM | > 10 µM | > 10 µM | > 10 µM
14 | C=C1C(=O)[C@]23[C@H](O)[C@H]1CC[C@H]2[C@@]12CO[C@@]3(O)[C@@H](O)[C@@H]1[C@](C)(COC(C)=O)CC[C@@H]2O | > 10 µM | > 10 µM | > 10 µM | > 10 µM | > 10 µM
15 | COC[C@H]1C(=O)[C@]23C[C@H]1CC[C@H]2[C@@]12CO[C@@]3(O)[C@@H](O)[C@@H]1[C@](C)(COC(C)=O)CC[C@@H]2O (mixture of isomers) | 12.3 µM | 18 µM | 14.5 µM | 9.68 µM | 16 µM
16 | COC[C@H]1C(=O)[C@]23[C@H](O)[C@H]1CC[C@H]2[C@@]12CO[C@@]3(O)[C@@H](O)[C@@H]1[C@](C)(CO)CC[C@@H]2O (relative stereo) | > 10 µM | > 10 µM | > 10 µM | > 10 µM | > 10 µM
17 | C=C1[C@@H](O)[C@]23[C@H](O)[C@H]1C[C@H](OC(C)=O)[C@H]2[C@]12CCCC(C)(C)[C@H]1[C@H](O)[C@]3(O)O[C@@H]2OCC (relative stereo) | > 10 µM | > 10 µM | > 10 µM | > 10 µM | > 10 µM
18 | C=C1[C@@H](O)[C@]23[C@H](O)[C@H]1C[C@H](OC(C)=O)[C@H]2[C@]12CCCC(C)(C)[C@H]1[C@H](O)[C@]3(O)O[C@@H]2O (relative stereo) | > 10 µM | > 10 µM | > 10 µM | > 10 µM | > 10 µM
19 | COC[C@H]1C(=O)[C@]23[C@H](O)[C@H]1[C@@H](O)C[C@H]2[C@]12CCC[C@@](C)(COC(C)=O)[C@H]1[C@H](O)[C@]3(O)OC2 (relative stereo) | > 10 µM | > 10 µM | > 10 µM | > 10 µM | > 10 µM
20 | COC[C@H]1C(=O)[C@]23C[C@H]1CC[C@H]2[C@@]12CO[C@@]3(O)[C@@H](O)[C@@H]1C(C)(C)CC[C@@H]2OC(C)=O (relative stereo) | 3.99 µM | 3.77 µM | 6.8 µM | 1.23 µM | 3.2 µM
21 | C=C1[C@@H](O)[C@]23[C@H](O)[C@H]1C[C@H](OC(C)=O)[C@H]2[C@]12CCC[C@@](C)(COC(C)=O)[C@H]1[C@H](O)[C@]3(O)O[C@@H]2O (relative stereo) | > 10 µM | > 10 µM | > 10 µM | > 10 µM | > 10 µM
22 | COC[C@@H]1C(=O)[C@]23[C@H](O)[C@H]1CC[C@H]2[C@@]12CO[C@@]3(O)[C@@H](O)[C@@H]1[C@](C)(CO)CC[C@@H]2O (relative stereo) | > 10 µM | > 10 µM | > 10 µM | > 10 µM | > 10 µM
23 | C=C1[C@@H](O)[C@]23[C@H](O)[C@H]1C[C@H](OC(C)=O)[C@H]2[C@]12CCC[C@@](C)(COC(C)=O)[C@H]1[C@H](OC(C)=O)[C@]3(O)O[C@@H]2O (relative stereo) | 2.69 µM | 5.53 µM | 6.23 µM | 3.17 µM | 3.86 µM
24 | COC[C@@H]1C(=O)[C@]23C[C@H]1CC[C@H]2[C@@]12CO[C@@]3(O)[C@@H](O)[C@@H]1C(C)(C)CC[C@@H]2OC(C)=O (single isomer, unassigned) | > 10 µM | > 10 µM | > 10 µM | > 10 µM | > 10 µM
25 | CC(=O)O[C@H]1C(=O)[C@@]2(C)[C@H]([C@H](OC(=O)c3ccccc3)[C@]3(O)C[C@H](OC(=O)[C@H](O)[C@@H](NC(=O)c4ccccc4)c4ccccc4)C(C)=C1C3(C)C)[C@]1(OC(C)=O)CO[C@@H]1C[C@@H]2O [PACLITAXEL] | < 0.008 µM | < 0.008 µM | < 0.008 µM | < 0.008 µM | < 0.008 µM
26 | C=C1C(=O)[C@]23C[C@H]1C[C@H](O)[C@H]2[C@@]12CO[C@@]3(O)C[C@@H]1C(C)(C)CC[C@@H]2O [RABDOCOETSIN C] | 9.04 µM | 4.24 µM | 9.62 µM | 1.8 µM | 5.29 µM
